# From ChEMBL document CHEMBL2074155, “Transport of antimony salts by Arabidopsis thaliana protoplasts over-expressing the human multidrug resistance-associated protein 1 (MRP1/ABCC1)” (FEBS Lett, 2006)
# How the values were obtained:
# [1] = target: T1, Multidrug resistance-associated protein 1 (Homo sapiens, UniProt P33527); assay: TP_TRANSPORTER: inhibition of Sb(III) accumulation in the presence of glibenclamid at a concentration of 10uM in MRP1-expressing MCP cells; format: functional, subcellular, Protoplasts; conditions: arabidopsis thaliana
# [2] = target: T1, Multidrug resistance-associated protein 1; assay: TP_TRANSPORTER: cell accumulation in MRP1-expressing MCP cells; format: functional, Mesophyll cell protoplasts; conditions: arabidopsis thaliana
# T1 sequence (P33527 whole entry): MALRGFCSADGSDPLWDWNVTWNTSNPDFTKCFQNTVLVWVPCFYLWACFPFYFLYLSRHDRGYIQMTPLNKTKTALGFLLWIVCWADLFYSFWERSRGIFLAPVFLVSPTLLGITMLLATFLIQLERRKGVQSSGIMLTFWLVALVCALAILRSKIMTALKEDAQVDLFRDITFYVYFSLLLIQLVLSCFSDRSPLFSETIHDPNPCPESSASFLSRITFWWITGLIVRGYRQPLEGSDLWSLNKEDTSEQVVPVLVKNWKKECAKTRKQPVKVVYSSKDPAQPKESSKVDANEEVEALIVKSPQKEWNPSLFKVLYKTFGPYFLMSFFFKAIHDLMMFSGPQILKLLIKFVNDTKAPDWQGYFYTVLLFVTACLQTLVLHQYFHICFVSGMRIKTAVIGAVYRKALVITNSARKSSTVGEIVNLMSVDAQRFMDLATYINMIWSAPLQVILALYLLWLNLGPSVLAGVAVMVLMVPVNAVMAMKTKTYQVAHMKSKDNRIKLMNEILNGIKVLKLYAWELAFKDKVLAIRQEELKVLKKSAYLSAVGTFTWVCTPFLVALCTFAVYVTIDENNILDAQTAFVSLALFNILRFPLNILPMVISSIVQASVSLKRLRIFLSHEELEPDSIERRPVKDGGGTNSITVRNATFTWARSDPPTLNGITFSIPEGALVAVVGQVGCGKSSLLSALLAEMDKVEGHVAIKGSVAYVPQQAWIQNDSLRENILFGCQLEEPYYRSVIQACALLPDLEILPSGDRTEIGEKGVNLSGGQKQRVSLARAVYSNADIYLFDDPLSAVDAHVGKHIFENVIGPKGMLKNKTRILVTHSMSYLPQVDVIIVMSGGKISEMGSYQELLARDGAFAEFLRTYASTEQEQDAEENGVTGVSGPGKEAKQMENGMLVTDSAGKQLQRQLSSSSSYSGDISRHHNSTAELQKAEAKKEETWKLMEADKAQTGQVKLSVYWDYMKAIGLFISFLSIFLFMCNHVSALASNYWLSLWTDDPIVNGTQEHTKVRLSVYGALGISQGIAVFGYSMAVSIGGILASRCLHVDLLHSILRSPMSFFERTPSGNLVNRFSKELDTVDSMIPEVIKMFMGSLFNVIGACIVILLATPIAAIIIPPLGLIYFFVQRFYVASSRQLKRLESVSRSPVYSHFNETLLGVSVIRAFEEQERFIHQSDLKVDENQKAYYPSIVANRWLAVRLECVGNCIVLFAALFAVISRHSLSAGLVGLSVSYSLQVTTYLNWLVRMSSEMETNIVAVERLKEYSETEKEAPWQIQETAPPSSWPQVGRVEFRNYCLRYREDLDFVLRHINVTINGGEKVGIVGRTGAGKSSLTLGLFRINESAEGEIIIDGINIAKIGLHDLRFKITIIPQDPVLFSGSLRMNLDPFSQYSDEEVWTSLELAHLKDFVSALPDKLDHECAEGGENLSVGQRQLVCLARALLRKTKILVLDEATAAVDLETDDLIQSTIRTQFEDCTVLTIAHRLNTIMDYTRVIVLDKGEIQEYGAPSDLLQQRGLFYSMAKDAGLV
Activity [1],Activity [2],Compound
inhibitor [+],,COc1ccc(Cl)cc1C(=O)NCCc1ccc(S(=O)(=O)NC(=O)NC2CCCCC2)cc1 [GLYBURIDE]
,substrate [+],ANTIMONY (III) ION
